Results on 1 compound are retold here after patent publication US11998553B2, “Certain (2S)-N-[(1S)-1-cyano-2-phenylethyl]-1,4-oxazepane-2-carboxamides for treating lupus nephritis” (Insmed Incorporated, priority 2018, dated 2024).

The assay concerns NZB/WF1 mice. Description: Accelerated lupus nephritis model in mice (Ad-IFNα5 injection). In kind it is in vivo. As to the method:
INS1007 as a potential treatment for LN was assessed. 10-11 week old female New Zealand Black/New Zealand White F1 (NZB/WF1) mice (Jackson Laboratory) were subjected to a single injection of an adenovirus expressing IFNα5 (Ad-IFNα5, BioXcell, cat #BE0241, clone AR1-5A3) to accelerate the clinical manifestations of LN. FIG. 1 provides a schematic overview of the study design.
The duration of the study was 8 weeks from Ad-IFNα5 injection.
Urine and blood collection was carried out at baseline (immediately after Ad-IFNα5 injection), and at weeks 2, 4, 6 and 8. Total protein (by chemstick), albumin (by ELISA) and creatinine (by a colorimetric assay kit) was measured in urine and blood urea nitrogen (BUN) was measured in plasma.
Animals were sacrificed at 8 weeks and the left kidney of each animal was used for histopathology analysis. Pathology scores are summed from individual scores of three aspects: glomerulonephritis, tubular protein and nephropathy and were scored by a Certified Veterinary Pathologist.
The right kidneys of each animal were used for FACS analysis. Right kidneys were digested and subjected to Percoll centrifugation, fixable-viability-dye and surface staining for the following markers: CD45, CD3, CD11b, F4/80, Ly6G and Ly6C. Results of FACS are provided at FIGS. 7-13.

Molecules are shown by their SMILES.

As to `Cn1c(=O)oc2ccc(-c3ccc(C[C@@H](C#N)NC(=O)[C@@H]4CNCCCO4)cc3)cc21` [INS1007, (2S)—N-{(1S)-1-cyano-2-[4-(3-methyl-2-oxo-2,3-dihydro-1,3-benzoxazol-5-yl)phenyl]ethyl}-1,4-oxazepane-2-carboxamide], the “pseudo-survival (urine total protein less than 750 mg/dL)” value (days post Ad-IFNα5 injection, INS1007 0.1, 1, 10 mg/kg PO twice daily, FIG. 5) is “increased “pseudo-survival” (and decreased total protein concentration) in a dose dependent manner”. Further, under “left kidney histopathology at 8 weeks, vs vehicle, FIG. 6”, the “renal pathology score sum (glomerulonephritis, tubular protein, nephropathy)” value is recorded as “decreased renal pathology as compared to vehicle control”. For the same compound, the “blood urea nitrogen (BUN) levels” value (plasma BUN (mg/dL), 6 weeks after model induction, INS1007 0.1, 1, 10 mg/kg PO twice daily, FIG. 4) is on record as “decreased in animals treated with INS1007 in a dose dependent matter”. In addition, the “T-lymphocyte percent of total kidney cells” value (right kidney FACS, CD45+, CD3+, week 8, FIG. 13) is reported as “significantly decreased”. Also, the “Ly6C+ macrophage percent of total kidney cells” value (right kidney FACS, CD45+, CD11b+, F4/80+, Ly6C+, Ly6G−, week 8, FIG. 11) is “significantly decreased”. In addition, the “Ly6C+ monocyte percent of total kidney cells” value (right kidney FACS, CD45+, CD11b+, Ly6G−, Ly6C+, week 8, FIG. 10) is “significantly decreased”. For the setting “right kidney FACS, CD45+, CD11b+, week 8, FIG. 8”, the “myelocyte percent of total kidney cells” value is on record as “significantly decreased”. Besides, the urinary protein concentration result (urine total protein by chemstick (mg/dL), week 8, INS1007 0.1, 1, 10 mg/kg PO twice daily from week 2, FIG. 3) is recorded as “decrease in urinary protein concentration (mg/dL) in a dose dependent manner”.
